Read-outs that look alike come from different tables or passages of the source.
Key:
human recombinant BACE1 = human recombinant BACE1 (Homo sapiens (Human), UniProt P56817); assay: In vitro enzymatic BACE1 FRET assay; format: biochemical; settings: read-out: IC50 IP (μM) BACE1 enzyme
In short: (§1)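 Ni-NTA-purified recombinant enzyme incubated 1 h with 50 nM FRET peptide substrate (fluorophore and quencher flanking the BACE cleavage site). Reaction stopped with Tris buffer raising pH to neutrality; cleavage-released fluorescence read at ex 488/em 590 nm.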

human recombinant BACE2 = human recombinant BACE2 (Homo sapiens (Human), UniProt Q9Y5Z0); assay: In vitro enzymatic BACE2 FRET assay; format: biochemical; settings: read-out: IC50 IP (μM) BACE2 enzyme
In short: as §1

[1] = system: Aβ40 in conditioned medium of cells stably expressing Amyloid Precursor Protein (APP); assay: In vitro BACE-1 cell-based assay (Aβ40 sandwich ELISA); settings: read-out: IC50 IP (μM) BACE1 cell
In short: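 APP-stable cells, pre-cultured 24 h at 37° C in DMEM/10% FBS, were treated 24 h with compound in a 10-point series starting at 100 μM or 10 μM (0.1% DMSO final). Secreted Aβ40 in conditioned medium was measured by pAb40/biotin-6E10 sandwich ELISA with Europium time-resolved fluorescence; IC50 from percent inhibition versus concentration.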

Recombinant Cat D = Recombinant Cat D (Homo sapiens (Human), UniProt P07339); assay: In vitro enzymatic Cathepsin D (Cat D) FRET assay; format: biochemical; settings: read-out: IC50 IP (μM) CatD
In short: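 Recombinant Cat D expressed in CHO cells, assayed in 0.05 M citrate pH 3.5 with 5 mM CHAPS and 10% DMSO final. Reaction started with 20 nM FRET peptide substrate, incubated one hour, then stopped by Tris buffer to neutral pH; fluorescence read at ex 500/em 580 nm.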

Aβ 40 in rat CSF = assay: In vivo inhibition of beta-secretase: Aβ40 reduction in rat CSF; settings: 10 mpk, after 4 h
In short: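 Male Sprague Dawley rats (200 g) dosed orally in 2% HPMC, 1% Tween80, pH 2.2, at 3, 10 or 30 mg/kg; CSF and brain taken 4 h later. Brain homogenate centrifuged at 355,000 g; Aβ40 measured by ECL sandwich ELISA (4G8 capture, Abeta40 C-terminal Fab detection), as % reduction versus vehicle controls.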

Aβ 40 in rat brain = assay: In vivo inhibition of beta-secretase: Aβ40 reduction in rat brain; settings: 10 mpk, after 4 h
In short: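 Rats were dosed by oral gavage at up to 100 mg/kg in 2% HPMC, 1% Tween80, pH 2.2, with vehicle-only controls. Supernatant Aβ40 was measured by ECL sandwich ELISA with biotinylated-4G8 capture and C-terminal Fab40 detection.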

Aβ in lumbar CSF = settings: oral dosing of 30 or 90 mg; cited from earlier work
[2] = healthy volunteers; cited from earlier work
[3] = system: pigment epithelium of the rat's eye; settings: higher compound dose given for three months; cited from earlier work
[4] = cited from earlier work
CSF Aβ40 = settings: healthy individuals, 36 h post-dose, cited from earlier work
[5] = phase 1, healthy individuals; cited from earlier work

human recombinant BACE2, sequence (Q9Y5Z0 63-518): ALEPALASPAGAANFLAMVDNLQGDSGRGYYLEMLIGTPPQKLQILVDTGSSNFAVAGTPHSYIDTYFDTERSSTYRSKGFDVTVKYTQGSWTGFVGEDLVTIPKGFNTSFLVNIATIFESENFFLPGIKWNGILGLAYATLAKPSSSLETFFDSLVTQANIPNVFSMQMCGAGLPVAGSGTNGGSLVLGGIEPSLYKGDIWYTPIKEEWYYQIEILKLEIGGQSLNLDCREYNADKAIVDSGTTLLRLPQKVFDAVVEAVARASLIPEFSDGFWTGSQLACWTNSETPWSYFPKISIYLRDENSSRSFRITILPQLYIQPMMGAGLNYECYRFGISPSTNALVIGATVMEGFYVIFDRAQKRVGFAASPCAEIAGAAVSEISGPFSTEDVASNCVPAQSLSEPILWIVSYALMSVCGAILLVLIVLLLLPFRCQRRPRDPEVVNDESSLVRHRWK
human recombinant BACE1, sequence (P56817 46-501): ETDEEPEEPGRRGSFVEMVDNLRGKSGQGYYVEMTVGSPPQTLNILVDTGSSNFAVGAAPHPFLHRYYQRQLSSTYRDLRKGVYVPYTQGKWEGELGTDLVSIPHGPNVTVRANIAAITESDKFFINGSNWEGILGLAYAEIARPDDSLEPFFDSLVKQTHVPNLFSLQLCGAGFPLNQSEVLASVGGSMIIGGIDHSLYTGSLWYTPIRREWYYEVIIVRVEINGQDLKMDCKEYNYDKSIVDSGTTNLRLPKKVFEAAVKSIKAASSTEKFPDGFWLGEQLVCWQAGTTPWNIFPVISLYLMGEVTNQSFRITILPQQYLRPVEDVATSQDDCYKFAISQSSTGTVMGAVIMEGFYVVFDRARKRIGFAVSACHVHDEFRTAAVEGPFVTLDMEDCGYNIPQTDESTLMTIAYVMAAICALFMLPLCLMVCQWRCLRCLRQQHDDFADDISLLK
Recombinant Cat D, sequence (P07339 65-412): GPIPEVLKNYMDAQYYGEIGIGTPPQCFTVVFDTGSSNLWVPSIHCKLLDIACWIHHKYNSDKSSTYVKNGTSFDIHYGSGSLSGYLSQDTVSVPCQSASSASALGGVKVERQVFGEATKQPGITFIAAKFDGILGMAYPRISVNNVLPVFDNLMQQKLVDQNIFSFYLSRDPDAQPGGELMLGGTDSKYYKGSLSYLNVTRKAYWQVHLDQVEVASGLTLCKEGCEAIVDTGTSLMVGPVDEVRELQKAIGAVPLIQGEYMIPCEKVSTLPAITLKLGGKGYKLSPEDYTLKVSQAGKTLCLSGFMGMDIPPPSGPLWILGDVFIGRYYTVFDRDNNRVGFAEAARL

SMILES	IC50 (human recombinant BACE1) [µM]	IC50 (human recombinant BACE2) [µM]	IC50 [1] [µM]	IC50 (Recombinant Cat D) [µM]	% Aβ 40 reduction in rat CSF at 10 mpk (Aβ 40 in rat CSF) [%]	% Aβ 40 reduction in rat brain at 10 mpk (Aβ 40 in rat brain) [%]	Aβ reductions in lumbar CSF (Aβ in lumbar CSF)	safety and tolerability [2]	retinal toxicity finding in rat toxicology studies [3]	eye assessments of people from the Ph I dosing trial [4]	reduction of CSF Aβ40 concentrations (CSF Aβ40; single dose of 100 mg) [%]	reduction of CSF Aβ40 concentrations (CSF Aβ40; single dose of 550 mg) [%]	tolerability [5]
C#CCOc1cnc2c(Nc3ccc(F)c([C@@]4(CF)N=C(N)S[C@H]5C[C@H]54)c3)ncnc2c1 [Example 941, N-(3-((1S,5S,6S)-3-amino-5-(fluoromethyl)-2-thia-4-azabicyclo[4.1.0]hept-3-en-5-yl)-4-fluorophenyl)-7 (2-propyn-1-yloxy)pyrido[3,2-d]pyrimidin-4-amine]	0.00962	0.2	0.0129	780	41	2	–	–	–	–	–	–	–
C#CCOc1cnc2c(Nc3cc(F)c(F)c([C@@]4(C)N=C(N)S[C@@]5(C(F)F)C[C@@H]45)c3)ncnc2c1 [Example 945, N-(3-((1S,5S,6S)-3-amino-1-(difluoromethyl)-5-methyl-2-thia-4-azabicyclo[4.1.0]hept-3-en-5-yl)-4,5-difluorophenyl)-7-(2-propyn-1-yloxy)pyrido[3,2-d]pyrimidin-4-amine]	0.00105	0.0661	0.00709	381	68	55	–	–	–	–	–	–	–
C#C[C@H](C)Oc1cnc(C(=O)Nc2ccc(F)c([C@@]3(C)N=C(N)S[C@@]4(COC)C[C@H]43)c2)cn1 [Example 965, N-(3-((1S,5S,6S)-3-amino-1-(methoxymethyl)-5-methyl-2-thia-4-azabicyclo[4.1.0]hept-3-en-5-yl)-4-fluorophenyl)-5-(((1S)-1-methyl-2-propyn-1-yl)oxy)-2-pyrazinecarboxamide]	0.000618	0.0638	0.00287	> 400	33	20	–	–	–	–	–	–	–
C#C[C@H](C)Oc1cnc(C(=O)Nc2ccc(F)c([C@@]3(C)N=C(N)S[C@@]4(C(F)F)C[C@@H]34)c2)cn1 [Example 966, N-(3-((1S,5S,6S)-3-amino-1-(difluoromethyl)-5-methyl-2-thia-4-azabicyclo[4.1.0]hept-3-en-5-yl)-4-fluorophenyl)-5-(((1S)-1-methyl-2-propyn-1-yl)oxy)-2-pyrazinecarboxamide]	0.000385	0.0419	0.00182	735	67	68	–	–	–	–	–	–	–
CC(C)NC(=O)[C@]12C[C@H]1[C@@](C)(c1cc(NC(=O)c3cnc(OCC(F)(F)F)cn3)ccc1F)N=C(N)S2 [Example 976, (1S,5S,6S)-3-amino-5-(2-fluoro-5-(5-(2,2,2-trifluoroethoxy)pyrazine-2-carboxamido)phenyl)-N-isopropyl-5-methyl-2-thia-4-azabicyclo[4.1.0]hept-3-ene-1-carboxamide]	0.000527	0.268	0.0101	260	36	16	–	–	–	–	–	–	–
COC[C@]12C[C@H]1[C@@](C)(c1cc(NC(=O)c3cnc(OCC4CC4)cn3)cc(F)c1F)N=C(N)S2 [Example 1021, N-(3-((1S,5S,6S)-3-amino-1-(methoxymethyl)-5-methyl-2-thia-4-azabicyclo[4.1.0]hept-3-en-5-yl)-4,5-difluorophenyl)-5-(cyclopropylmethoxy)-2-pyrazinecarboxamide]	0.000918	0.0808	0.0116	776	44	25	–	–	–	–	–	–	–
Cc1noc(COc2cnc(C(=O)Nc3ccc(F)c([C@@]4(C)N=C(N)S[C@@]5(C(F)F)C[C@@H]45)c3)cn2)n1 [Example 1039, N-(3-((1S,5S,6S)-3-amino-1-(difluoromethyl)-5-methyl-2-thia-4-azabicyclo[4.1.0]hept-3-en-5-yl)-4-fluorophenyl)-5-((3-methyl-1,2,4-oxadiazol-5-yl)metnoxy)-2-pyrazinecarboxamide]	0.000941	0.171	0.00251	725	13	16	–	–	–	–	–	–	–
C[C@@]1(c2cc(-c3cncnc3)c(F)cc2F)CCSC(N)=N1 [LY2811376, (S)-4-(2,4-difluoro-5-pyrimidin-5-yl-phenyl)-4-methyl-5,6-dihydro-4H-[1,3]thiazin-2-ylamine]	–	–	–	–	–	–	Prominent and long-lasting Aβ reductions	safe and well tolerated	–	–	–	–	–
C[C@@]1(c2cc(-c3cncnc3)c(F)cc2F)CCSC(N)=N1 [LY 2811376]	–	–	–	–	–	–	–	–	damaged the pigment epithelium of the rat's eye	did not show any abnormalities	–	–	–
CN1C(=N)N[C@](C)(c2cc(NC(=O)c3ccc(F)cn3)ccc2F)CS1(=O)=O [MK-8931]	–	–	–	–	–	–	–	–	–	–	75	92	generally well tolerated

From patent US20160046618A1, “Cyclopropyl Fused Thiazin-2-Amine Compounds as Beta-Secretase Inhibitors and Methods of Use” (AMGEN INC., priority 2014, published 2016)
